ChEMBL document CHEMBL4715881, “ATB-targeted delivery of triptolide prodrugs for safer and more effective pancreatic cancer therapy” (Bioorg Med Chem Lett, 2021)
Calls of active or inactive are those of the source. The rule behind the calls is not given here.

What was measured:
MIA PaCa-2 [1] = test: Cytotoxicity against human MIA PaCa-2 cells assessed as reduction in cell viability pretreated with glycine for 30 mins by MTT assay; assay type: functional, cell-based
ASPC1 [2] = test: Cytotoxicity against human ASPC1 cells assessed as reduction in cell viability pretreated with glycine for 30 mins by MTT assay; assay type: functional, cell-based
MIA PaCa-2 [3] = test: Cytotoxicity against human MIA PaCa-2 cells assessed as reduction in cell viability by MTT assay; assay type: functional, cell-based
ASPC1 [4] = test: Cytotoxicity against human ASPC1 cells assessed as reduction in cell viability by MTT assay; assay type: functional, cell-based
[5] = Cytotoxicity against human HPDE cells assessed as reduction in cell viability by MTT assay; assay type: cell-based
[6] = Drug uptake in human MIA PaCa-2 cells in presence of glutamate; assay type: ADME, cell-based
[7] = Drug uptake in human ASPC1 cells in presence of glutamate; assay type: ADME, cell-based
[8] = Drug uptake in human ASPC1 cells in presence of lysine; assay type: ADME, cell-based
[9] = Drug uptake in human MIA PaCa-2 cells in presence of lysine; assay type: ADME, cell-based
[10] = Drug uptake in human MIA PaCa-2 cells in presence of glycine; assay type: ADME, cell-based
[11] = Drug uptake in human ASPC1 cells in presence of glycine; assay type: ADME, cell-based
[12] = Drug uptake in human MIA PaCa-2 cells in presence of alpha-Methyl-D,L-tryptophan; assay type: ADME, cell-based
[13] = Drug uptake in human ASPC1 cells in presence of alpha-Methyl-D,L-tryptophan; assay type: ADME, cell-based
[14] = Drug uptake in human MIA PaCa-2 cells assessed as Vmax measured at 10 mins; assay type: ADME, cell-based; conditions: mia paca-2, 10 min
[15] = Drug uptake in human MIA PaCa-2 cells assessed as Km; assay type: ADME, cell-based
[16] = Drug uptake in human ASPC1 cells assessed as Vmax measured at 10 mins; assay type: ADME, cell-based; conditions: aspc1, 10 min
[17] = Drug uptake in human ASPC1 cells assessed as Km; assay type: ADME, cell-based
[18] = Drug uptake in human HPDE cells; assay type: ADME, cell-based
[19] = Drug uptake in human ASPC1 cells; assay type: ADME, cell-based
[20] = Drug uptake in human MIA PaCa-2 cells; assay type: ADME, cell-based
[21] = Stability in rat liver homogenate assessed as half life; assay type: ADME, tissue-based
[22] = Stability in human ASPC1 cells homogenate assessed as half life; assay type: ADME, cell-based; conditions: ASPC1 cell homogenate
[23] = Stability in rat plasma assessed as half life; assay type: ADME, cell-free

Structure (SMILES)	Activity (MIA PaCa-2 [1])	Activity (ASPC1 [2])	Activity (MIA PaCa-2 [3])	Activity (ASPC1 [4])	Activity [5]	Drug uptake [6]	Drug uptake [7]	Drug uptake [8]	Drug uptake [9]	Drug uptake [10]	Drug uptake [11]	Drug uptake [12]	Drug uptake [13]	Vmax [14] [nmol/mg]	Km [15] [µM]	Vmax [16] [nmol/mg]	Km [17] [µM]	Drug uptake [18]	Drug uptake [19]	Drug uptake [20]	also measured
CC(C)[C@]12O[C@H]1[C@@H]1O[C@]13[C@]1(O[C@H]1C[C@H]1C4=C(CC[C@@]13C)C(=O)OC4)[C@@H]2OC(=O)[C@@H](N)Cc1c[nH]c2ccccc12	inactive	inactive	Active	Active	Non-Toxic	Active	Active	Not Active	Not Active	Not Active	Not Active	Not Active	Not Active	5.072	96	5.874	105	Not Active	Active	Active	half-life [21]: 6 h; half-life [22]: 8 h; half-life [23]: > 10 h
CC(C)[C@]12O[C@H]1[C@@H]1O[C@]13[C@]1(O[C@H]1C[C@H]1C4=C(CC[C@@]13C)C(=O)OC4)[C@@H]2OC(=O)[C@@H](N)CCCCN	inactive	inactive	Active	Active	Non-Toxic	Active	Active	Not Active	Not Active	Not Active	Not Active	Not Active	Not Active	3.516	124	3.41	121	Not Active	Active	Active	half-life [21]: 6 h; half-life [22]: 8 h; half-life [23]: > 10 h
CC(C)[C@H](N)C(=O)O[C@@H]1[C@@]2(C(C)C)O[C@H]2[C@@H]2O[C@]23[C@]12O[C@H]2C[C@H]1C2=C(CC[C@@]13C)C(=O)OC2	inactive	inactive	Active	Active	Non-Toxic	Active	Active	Not Active	Not Active	Not Active	Not Active	Not Active	Not Active	4.132	112	4.391	130	Not Active	Active	Active	half-life [21]: 6 h; half-life [22]: 8 h; half-life [23]: > 10 h
CC(C)[C@]12O[C@H]1[C@@H]1O[C@]13[C@]1(O[C@H]1C[C@H]1C4=C(CC[C@@]13C)C(=O)OC4)[C@@H]2O [TRIPTOLIDE]			Active	Active	Toxic																
